Reference: PMC12389155 (Pharmaceuticals, 2025)
Each block holds one compound with its values, some of them ahead of it.

Legend:
HCT 116 cells = assay: MTT cytotoxicity assay in HCT 116 colorectal cancer cells; format: cell-based; settings: Homo sapiens, HCT 116, 48 h exposure, ± SEM, read-out: IC50 (cytotoxic activity)
Description: (§1) The colorectal cancer cell line HCT 116 (ATCC CCL-247) was grown in Roswell Park Memorial Institute 1640 Medium (RPMI, Biochrom Ltd., Cambridge, UK), and the breast cancer cell line MDA-MB-231 (ATCC HTB-26, American Type Culture Collection, Manassas, VA, USA) was maintained in Dulbecco’s Modified Eagle Medium (DMEM, Biochrom Ltd., Cambridge, UK) supplemented with 10% (v/v) fetal bovine serum (FBS, Biochrom Ltd., Cambridge, UK) and 1% (v/v) penicillin-streptomycin (p/s, Biochrom) on tissue-culture-treated flasks. The human fibroblast BJ-5ta cell line (ATCC CRL-2522) was grown in a 4:1 proportion of DMEM:Medium 199 (PAN-Biotech GmbH, Aidenbach, Germany), supplemented with 10% (v/v) FBS, 1% (v/v) p/s, and 0.01% (v/v) hygromycin B (Sigma-Aldrich, St. Louis, MO, USA). All cell lines were authenticated and tested for mycoplasma contamination. Cells were incubated at 37 °C with 5% CO2 and 95% relative humidity. […] Cell counts were determined using a hemocytometer. […]
(§2) After the incubation period, the culture media was discarded from each well, and 100 µL (0.5 mg/mL) was added. […] Cell viability was determined based on the absorbance measured at 570 nm using a microplate reader (Cytation 3, BioTek Instruments, Winooski, VT, USA). The absorbance of untreated cells or DMSO-treated cells was considered at 100% cell viability. […]

MDA-MB-231 cells = assay: MTT cytotoxicity assay in MDA-MB-231 triple-negative breast cancer cells; format: cell-based; settings: Homo sapiens, MDA-MB-231, 48 h exposure, ± SEM, read-out: IC50 (cytotoxic activity)
Description: as §1, §2

COR-L23 cells = tested on: COR-L23 cells; set-up: method as in PMID 21366300; settings: COR-L23 lung cancer cells; read-out: IC50 nucleoside-nucleobase transport inhibition; cited from earlier work
Aqueous solubility = format: physicochemical
EGFR = tested on: EGFR; set-up: method as in PMID 22753156, PMID 15199094; settings: cited from earlier work

SMILES: O=c1[nH]cc(F)c(=O)[nH]1 [5-FU, 5-Fluorouracil]
IC50 (HCT 116 cells): 10.4 ± 0.68 µM | IC50 (MDA-MB-231 cells): 183 ± 17.1 µM

SMILES: COc1ccc(CCc2nc(NCC(C)O)nc3c(NCc4ccc(OC)c(OC)c4)nc(CCC(C)OC(=O)Nc4ccccc4)nc23)cc1OC (stereo not drawn) [IV]
IC50 (COR-L23 cells): 8 nM

Solubility in aqueous medium (Aqueous solubility): poor solubility in aqueous medium
SMILES: O=C(NNc1ncnc2c(Nc3ccc(OC(F)(F)F)cc3)ncnc12)c1ccccc1 [PP, N’-(8-((4-(Trifluoromethoxy)phenyl)amino)pyrimido[5,4-d]pyrimidin-4-yl)benzohydrazide]
IC50 (HCT 116 cells): 2.04 ± 0.45 µM | IC50 (MDA-MB-231 cells): 5.24 ± 0.24 µM

SMILES: COc1ccc(NC(=O)OC(C)CCc2nc(NCc3ccc(OC)c(OC)c3)c3nc(NCC(C)OC(=O)CCC(=O)O)nc(CCc4ccc(OC)c(OC)c4)c3n2)cc1 (stereo not drawn) [VI]
IC50 (COR-L23 cells): 7 nM

SMILES: COc1ccc(NC(=O)OC(C)CCc2nc(NCc3ccc(OC)c(OC)c3)c3nc(NCC(C)O)nc(CCc4ccc(OC)c(OC)c4)c3n2)cc1 (stereo not drawn) [V]
IC50 (COR-L23 cells): 4 nM

SMILES: CCN(CC)CC1CCN(c2ncc3ncnc(Nc4ccc(F)c(Cl)c4)c3n2)CC1 [compound III]
Activity as EGFR tyrosine kinase inhibitors (EGFR): nanomolar range
